Measured values taken from PMC7703437, “In Vitro Hepatic Metabolism of Curcumin Diethyl Disuccinate by Liver S9 from Different Animal Species” (Frontiers in Pharmacology, 2020).
“And” between values parts separate entries of the source, which are not always exact repeats. Equal entries are not always repeated.

Legend:
[1] = In vitro metabolism profiling of CDD in dog liver S9 (1 mg/ml); type: in vitro ADME, dog (beagle); conditions: beagle, liver S9; dog LS9 1 mg/ml; read-out: t 1/2 (CDD)
Method: (§1) The metabolism profiles of CDD were investigated against HLS9, MLS9, DLS9, and RLS9. A stock solution of CDD was prepared at 150 µM in 50% acetonitrile in water before use. The metabolism study was initiated by spiking 735 µl of preincubated LS9 with 15 µl of CDD stock solution, and the mixture was subsequently incubated at 37°C. The final concentrations of CDD and LS9 were 3 μM and 1 mg/ml, respectively. A 50-µl aliquot from the mixture was collected at 0.5, 1, 2, 3, 4, 5, 10, 15, 30, 45, 60, 90, and 120 min and immediately mixed with 100 µl of ice-cold acetonitrile containing 0.45 µM of internal standard DMC to terminate the metabolic reaction. […] The sample at the initial time point (0 min) was prepared as the other samples, except that heat-inactivated HLS9, MLS9, DLS9, and RLS9 (80°C for 20 min; 1 mg/ml protein) were used.
(§2) The UHPLC system consisted of an Agilent series 1290 quaternary pump with an online degasser, autosampler, column oven, and diode array detector. The mobile phase was composed of (A) 0.1% (v/v) formic acid in acetonitrile and (B) 0.1% (v/v) formic acid in water. Each solution was filtered through a nylon filter (pore size, 0.22 µm; MS® Membrane Filters; Membrane Solutions, United States) before use. The mobile phase flow rate was kept at 1.2 ml/min in a gradient mode using the following elution program: 0–3.0 min, initial A-B (40:60, v/v); 4.5–7.0 min, isocratic elution A-B [50:50, (v/v); 8.5–11.0 min, isocratic elution A-B (60:40, v/v); and 12.0–17.0 min, isocratic elution A-B (40:60, v/v)]. CDD, curcumin, and MSCUR in the supernatant were partitioned using a C8 column (4.6 mm × 50 mm, 2.7 µm; HALO, Advanced Materials Technology, United States) with reference to DMC. The detection wavelength was set at 400 nm (λ max(CDD) = 400 nm, λ max(curcumin) = 427 nm, λ max(MSCUR) = 418 nm, and λ max(DMC) = 421 nm). The column was maintained at 35°C throughout the run, and the supernatant injection volume was set at 20 µl.
(§3) The concentrations of CDD, curcumin, and MSCUR in the supernatant were determined from the standard plots, which were prepared by spiking individual working solutions of the compounds to heat-inactivated HLS9, MLS9, DLS9, and RLS9 ([Alcorn et al., 2007]; [Montoro-Garcia et al., 2009]; [Singh et al., 2010]). These working standards were extracted with 100 µl of ice-cold acetonitrile containing 0.45 µM of DMC and then 120 μl of the supernatant was diluted with 40 μl of water prior to the UHPLC analysis. The peak area ratios of CDD, curcumin, and MSCUR to the internal standard were computed against linear concentration ranges of 0.025–4.5 µM CDD, 0.025–4.5 µM curcumin, and 0.0125–0.75 µM MSCUR, respectively, with the coefficient of determination (r^2) values greater than 0.99.
(§4) The percent content of CDD and the metabolites formed upon its incubation with LS9, namely, curcumin and MSCUR, was plotted against incubation time.
(§5) The following equations were adopted to describe the changes in CDD and MSCUR content over time (t): A = A0e^−k1t (2) B= k1A0/k2−k1(e^−k1t−e^−k2t), (3) where A0 is the CDD concentration at time 0, k 1 is the degradation rate constant of CDD, and k 2 is the degradation rate constant of MSCUR. k 1 and k 2 were determined by using Eqs. 2 and 3, respectively, with nonlinear regression analysis using the SOLVER function of Microsoft Excel for Office 365 MSO (16.0.12527.20986) ([Brown, 2001]). The half-life (t 1/2) was calculated using Eq. 4: t1/2=0.693/k (4)
(§6) The in vitro intrinsic clearance (CLint,in vitro) of CDD and MSCUR in LS9 was calculated using Eq. 5: CLint, in vitro= k × [V]incubation(ml)/[P]incubation(mg protein), (5) where [V]incubation is the incubation volume in ml, and [P]incubation is the amount of LS9. […]

dog LS9 (DLS9; beagle) = assay: as above; type: in vitro ADME
Method: as §1, §2, §3, §4, §5, §6

[2] = In vitro metabolism profiling of CDD in rat liver S9 (1 mg/ml); type: in vitro ADME, rat (Sprague–Dawley); conditions: Sprague-Dawley, liver S9; rat LS9 1 mg/ml; read-out: t 1/2 (CDD)
Method: as §1, §2, §3, §4, §5, §6

[3] = tested on: rat LS9 (RLS9; Sprague–Dawley); assay: as above; type: in vitro ADME
Method: as §1, §2, §3, §4, §5, §6

DLS9 = assay: CDD depletion in DLS9 0.02 mg/ml (optimisation of incubation condition); type: in vitro ADME, dog; conditions: CDD 3 μM
Method: The metabolism profiles of CDD and curcumin formation profile were investigated against HLS9, MLS9, DLS9 and RLS9. A stock solution of CDD was prepared at 150 µM in 50% acetonitrile in water before use. The metabolism study was initiated by spiking a 588 µl pre-incubated LS9 with 12 µl CDD stock solution, and subsequently incubated at 37°C. The final concentrations of CDD and LS9 were 3 µM and 0.02 mg/ml, respectively. A 50 µl aliquot from the mixture was collected at 0.5, 1, 2, 3, 4, 5, 10, 15, 30, 45 and 60 min and was immediately mixed with 100 µl of ice-cold acetonitrile containing 0.45 µM of internal standard DMC to terminate the metabolic reaction. […] Samples of 120 µl of supernatant wee diluted with 40 µl of water prior to UHPLC analysis (Agilent series 1290, Agilent Technology, USA) by means of protocol outlined in Materials and Methods:“In vitro Metabolism Profiling of Curcumin Diethyl Disuccinate”. The sample at 0 min was prepared as other samples except that heat-inactivated HLS9, MLS9, DLS9 and RLS9 (80°C for 20 min; 1 mg/ml protein) were used. Duplicates were conducted for each experiment.
The peak area ratios of CDD and curcumin to internal standard in the supernatant were determined. The percent contents of CDD and curcumin were plotted against incubation time. The depletion of CDD was calculated with reference to the initial concentration. The saturated substrate was defined as % depletion less than 30.

half-life at 3 µM [1]: 52.2 ± 15 s
CLint, in vitro(CDD) (dog LS9 (DLS9; beagle); dog LS9): 0.85 ± 0.29 ml min^−1 mg protein^−1
k 1 (CDD) (dog LS9 (DLS9; beagle); dog LS9 1 mg/ml, CDD 3 µM, 37°C): 0.85 ± 0.29 min⁻¹
CLint, in vivo(CDD) (dog LS9 (DLS9; beagle); dog, scaled from CLint,in vitro with physiologically based scaling factors): 198.61 ± 66.73 L/h/kg
CLint, in vivo total (dog LS9 (DLS9; beagle); dog, sum of CLint,in vivo(CDD) and CLint,in vivo(MSCUR)): 5,915.59 ± 535.14 L h^−1 kg^−1
CLH (predicted hepatic clearance) (dog LS9 (DLS9; beagle); dog, well-stirred model, QH 40 ml min^−1 kg^−1, fup 0.0594): 2.38 ± 1.48 × 10^–3 L h^−1 kg^−1
half-life at 3 µM [2]: 62.4 ± 10.8 s
CLint, in vitro(CDD) ([3]; rat LS9): 0.68 ± 0.13 ml min^−1 mg protein^−1
k 1 (CDD) ([3]; rat LS9 1 mg/ml, CDD 3 µM, 37°C): 0.68 ± 0.13 min⁻¹
CLint, in vivo(CDD) ([3]; rat, scaled from CLint,in vitro with physiologically based scaling factors): 197.51 ± 37.52 L/h/kg
CLint, in vivo total ([3]; rat, sum of CLint,in vivo(CDD) and CLint,in vivo(MSCUR)): 3,002.88 ± 180.63 L h^−1 kg^−1
CLH (predicted hepatic clearance) ([3]; rat, well-stirred model, QH 70 ml min^−1 kg^−1, fup 0.0594): 4.10 ± 5.77 × 10^–3 L h^−1 kg^−1
% CDD remaining (DLS9; 0.5 min): 76.77%
%Depletion of CDD (DLS9; 0.5 min (selected incubation time)): 23% and 23.23%
% CDD remaining (DLS9; 1 min): 66.99%
%Depletion of CDD (DLS9; 1 min): 33.01%
% CDD remaining (DLS9; 2 min): 49.79%
%Depletion of CDD (DLS9; 2 min): 50.21%
% CDD remaining (DLS9; 3 min): 42.26%
%Depletion of CDD (DLS9; 3 min): 57.74%
% CDD remaining (DLS9; 4 min): 31.30%
%Depletion of CDD (DLS9; 4 min): 68.70%
% CDD remaining (DLS9; 5 min): 25.06%
%Depletion of CDD (DLS9; 5 min): 74.94%
Compound: CCOC(=O)CCC(=O)Oc1ccc(/C=C/C(=O)/C=C(O)/C=C/c2ccc(OC(=O)CCC(=O)OCC)c(OC)c2)cc1OC [CDD, curcumin diethyl disuccinate]
